Assay results from patent US9751885B2, “Cyclopropanamine compound and use thereof” (Takeda Pharmaceutical Company Limited, priority 2012, dated 2017).
Counter-ions that a name gives are not always drawn.

Columns and labels:
human LSD1(172-833) = human LSD1(172-833) (Homo sapiens (Human), UniProt O60341); test: Measurement of LSD1 inhibitory activity (time-resolved fluorescence, biotin-histone H3 mono methylated K4 peptide); type: biochemical
Protocol: When the turbidity reached 500 Klett units, the culture temperature was changed to 16° C., IPTG (Isopropyl β-D-1-thiogalactopyranoside) having a final concentration of 0.5 mM was added to induce expression, and the cells were cultured further for 14 hr. The culture medium was centrifuged at 6,000 g for 15 min, and Escherichia coil pellets were recovered.
Using Branson ultrasonic disintegrator, the suspension was disrupted by ultrasonication for 3 min, and centrifuged at 33,000 g for 60 min, and the supernatant was recovered. […] It was concentrated to 10 mL with AmiconUltra (NWCO 30K) (Millipore Japan), and purified with HiLoad 26/60 Superdex 200 pg column (GE Healthcare) equilibrated with Buffer A to give hLSD1 purified product (8.4 mg). The protein concentration of hLSD1 was measured by BCA Protein Assay Kit (Thermo Fisher Scientific K.K.) using bovine serum albumin as the standard.
(5) Measurement of LSD1 Inhibitory Activity
After reaction at room temperature for 5 min, 1 mM 2-PCPA solution was added 5 μL to terminate the reaction. A detection solution ([…] potassium fluoride, 0.1% BSA) containing europium-labeled anti-histone H3 antibody (Wako Pure Chemical Industries, Ltd.) and Streptavidin-XL665 (Cisbio) was further added by 5 μL, and the mixture was left standing for 60 min.

MAO-A enzyme = MAO-A enzyme (Homo sapiens (Human), UniProt P21397); test: Measurement of MAO-A inhibitory activity (MAO-Glo Assay); type: biochemical
MAO-A enzyme, sequence (P21397 whole entry): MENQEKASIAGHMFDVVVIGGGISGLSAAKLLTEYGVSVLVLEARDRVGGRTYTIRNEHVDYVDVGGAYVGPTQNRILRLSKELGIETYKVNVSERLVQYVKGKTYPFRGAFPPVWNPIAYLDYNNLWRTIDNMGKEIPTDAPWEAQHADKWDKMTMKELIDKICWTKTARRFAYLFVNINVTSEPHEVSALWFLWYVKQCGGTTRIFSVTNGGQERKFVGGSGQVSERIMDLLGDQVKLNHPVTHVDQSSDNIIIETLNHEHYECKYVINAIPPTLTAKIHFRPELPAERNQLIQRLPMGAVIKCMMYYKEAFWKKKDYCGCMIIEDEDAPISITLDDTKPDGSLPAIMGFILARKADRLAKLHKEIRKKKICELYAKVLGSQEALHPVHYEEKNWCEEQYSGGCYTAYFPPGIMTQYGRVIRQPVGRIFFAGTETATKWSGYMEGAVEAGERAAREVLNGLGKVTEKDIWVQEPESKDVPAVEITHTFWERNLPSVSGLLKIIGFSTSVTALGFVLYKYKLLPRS
Protocol: The MAO-A inhibitory activity evaluation described below followed the protocol of MAO-Glo (registered trademark) Assay of Promega KK.
A test compound dissolved in 4% DMSO was added by 12.5 μL to 25 μL reaction solution (100 mM HEPES (pH 7.5), 5% glycerol) containing 400 ng of MAO-A enzyme (Sigma-Aldrich Co. LLC.), and the mixture was reacted at room temperature for 10 min. […] After reaction at room temperature for 60 min, Luciferine detection reagent (Promega KK) (50 μL) was added to terminate the reaction. After reaction at room temperature for min with stirring, the luminescence was measured by Envision (PerkinElmer). The MAO-A inhibitory rate (%) of the test compound was calculated by the following formula. inhibitory rate(%)=(1−(test compound count−blank)÷(control−blank))×100
The count of the MAO-A enzyme reaction mixture under compound non-addition conditions is indicated as control, and the count under compound non-addition and MAO-A enzyme non-addition conditions is indicated as blank.

MAO-B enzyme = MAO-B enzyme (Homo sapiens (Human), UniProt P27338); test: Measurement of MAO-B inhibitory activity (MAO-Glo Assay); conditions: read-out: MAO-B IC50 value;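 note: luminescence read-out, compound preincubated 10 min with enzyme then reacted 60 min at room temperature, inhibition relative to enzyme reaction without compound, blank lacking enzyme and compound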
MAO-B enzyme, sequence (P27338 whole entry): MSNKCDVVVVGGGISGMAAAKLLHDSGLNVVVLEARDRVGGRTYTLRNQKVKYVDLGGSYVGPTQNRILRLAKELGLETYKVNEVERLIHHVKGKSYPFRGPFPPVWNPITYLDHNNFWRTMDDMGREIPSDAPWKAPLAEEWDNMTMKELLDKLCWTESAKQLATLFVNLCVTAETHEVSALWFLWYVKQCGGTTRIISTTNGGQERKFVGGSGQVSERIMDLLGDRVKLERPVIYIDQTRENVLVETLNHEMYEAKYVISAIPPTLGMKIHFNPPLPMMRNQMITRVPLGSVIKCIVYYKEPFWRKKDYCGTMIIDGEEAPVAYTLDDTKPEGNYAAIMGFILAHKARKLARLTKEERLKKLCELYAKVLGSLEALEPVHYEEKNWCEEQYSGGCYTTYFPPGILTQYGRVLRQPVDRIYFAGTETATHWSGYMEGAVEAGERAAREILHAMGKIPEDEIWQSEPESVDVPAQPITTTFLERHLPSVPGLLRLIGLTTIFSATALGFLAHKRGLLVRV

Compound: N[C@@H]1C[C@H]1c1ccc(C(=O)Nc2ccccc2)cc1 (relative stereo) [Example 1, 4-(trans-2-aminocyclopropyl)-N-phenylbenzamide hydrochloride]
- IC50 (human LSD1(172-833)): < 0.1 µM
- IC50 (MAO-A enzyme): 0.1 µM
- IC50 (MAO-B enzyme): 3.2 µM

Compound: N[C@@H]1C[C@H]1c1ccc(C(=O)NCc2ccccc2)cc1 (relative stereo) [Example 2, 4-(trans-2-aminocyclopropyl)-N-benzylbenzamide hydrochloride]
- IC50 (human LSD1(172-833)): < 0.1 µM
- IC50 (MAO-A enzyme): 0.1 µM
- IC50 (MAO-B enzyme): > 10 µM

Compound: CN(C(=O)c1ccc([C@@H]2C[C@H]2N)cc1)c1ccccc1 (relative stereo) [Example 3, 4-(trans-2-aminocyclopropyl)-N-methyl-N-phenylbenzamide hydrochloride]
- IC50 (human LSD1(172-833)): < 0.1 µM
- IC50 (MAO-A enzyme): 0.25 µM
- IC50 (MAO-B enzyme): > 10 µM

Compound: N[C@@H]1C[C@H]1c1ccc(C(=O)Nc2cccc(C(F)(F)F)c2)cc1 (relative stereo) [Example 4, 4-(trans-2-aminocyclopropyl)-N-(3-(trifluoromethyl)phenyl)benzamide hydrochloride]
- IC50 (human LSD1(172-833)): < 0.1 µM
- IC50 (MAO-A enzyme): 0.19 µM
- IC50 (MAO-B enzyme): 0.54 µM

Compound: N[C@@H]1C[C@H]1c1ccc(C(=O)NC2CCCCC2)cc1 (relative stereo) [Example 6, 4-(trans-2-aminocyclopropyl)-N-cyclohexylbenzamide hydrochloride]
- IC50 (human LSD1(172-833)): < 0.1 µM
- IC50 (MAO-A enzyme): 0.32 µM
- IC50 (MAO-B enzyme): 4.2 µM

Compound: N[C@@H]1C[C@H]1c1ccc(C(=O)N2CCCCC2)cc1 (relative stereo) [Example 7, (4-(trans-2-aminocyclopropyl)phenyl)(piperidin-1-yl)methanone hydrochloride]
- IC50 (human LSD1(172-833)): < 0.1 µM
- IC50 (MAO-A enzyme): 0.8 µM
- IC50 (MAO-B enzyme): > 10 µM

Compound: O=C(Nc1ccccc1)c1ccc([C@@H]2C[C@H]2NCC2CC2)cc1 (relative stereo) [Example 8, 4-(trans-2-((cyclopropylmethyl)amino)cyclopropyl)-N-phenylbenzamide hydrochloride]
- IC50 (human LSD1(172-833)): < 0.1 µM
- IC50 (MAO-A enzyme): 8.3 µM
- IC50 (MAO-B enzyme): 4.6 µM

Compound: CN(Cc1ccccc1)C(=O)c1ccc([C@@H]2C[C@H]2N)cc1 (relative stereo) [Example 9, 4-(trans-2-aminocyclopropyl)-N-benzyl-N-methylbenzamide hydrochloride]
- IC50 (human LSD1(172-833)): < 0.1 µM
- IC50 (MAO-A enzyme): 0.12 µM
- IC50 (MAO-B enzyme): > 10 µM

Compound: CN(Cc1ccccc1)C(=O)c1ccc([C@@H]2C[C@H]2NCC2CC2)cc1 (relative stereo) [Example 10, N-benzyl-4-(trans-2-((cyclopropylmethyl)amino)cyclopropyl)-N-methylbenzamide hydrochloride]
- IC50 (human LSD1(172-833)): < 0.1 µM
- IC50 (MAO-A enzyme): 7 µM
- IC50 (MAO-B enzyme): > 10 µM

Compound: O=C(Nc1ccccc1)c1cccc([C@@H]2C[C@H]2NCC2CC2)c1 (relative stereo) [Example 13, 3-(trans-2-((cyclopropylmethyl)amino)cyclopropyl)-N-phenylbenzamide hydrochloride]
- IC50 (human LSD1(172-833)): < 0.1 µM
- IC50 (MAO-A enzyme): > 10 µM
- IC50 (MAO-B enzyme): > 10 µM

Compound: O=C(NCc1ccccc1)c1cccc([C@@H]2C[C@H]2NCC2CC2)c1 (relative stereo) [Example 14, N-benzyl-3-(trans-2-((cyclopropylmethyl)amino)cyclopropyl)benzamide hydrochloride]
- IC50 (human LSD1(172-833)): < 0.1 µM
- IC50 (MAO-A enzyme): 8.1 µM
- IC50 (MAO-B enzyme): > 10 µM

Compound: Cc1cnc(CNC(=O)c2ccc([C@@H]3C[C@H]3NCC3CC3)cc2)cn1 (relative stereo) [Example 15, 4-(trans-2-((cyclopropylmethyl)amino)cyclopropyl)-N-((5-methylpyrazin-2-yl)methyl)benzamide bis(trifluoroacetate)]
- IC50 (human LSD1(172-833)): < 0.1 µM
- IC50 (MAO-A enzyme): > 10 µM
- IC50 (MAO-B enzyme): > 10 µM

Compound: O=C(NCc1ccccn1)c1ccc([C@@H]2C[C@H]2NCC2CC2)cc1 (relative stereo) [Example 16, 4-(trans-2-((cyclopropylmethyl)amino)cyclopropyl)-N-(pyridin-2-ylmethyl)benzamide bis(trifluoroacetate)]
- IC50 (human LSD1(172-833)): < 0.1 µM
- IC50 (MAO-A enzyme): > 10 µM
- IC50 (MAO-B enzyme): > 10 µM

Compound: O=C(NCc1ccncc1)c1ccc([C@@H]2C[C@H]2NCC2CC2)cc1 (relative stereo) [Example 17, 4-(trans-2-((cyclopropylmethyl)amino)cyclopropyl)-N-(pyridin-4-ylmethyl)benzamide bis(trifluoroacetate)]
- IC50 (human LSD1(172-833)): < 0.1 µM
- IC50 (MAO-A enzyme): > 10 µM
- IC50 (MAO-B enzyme): > 10 µM

Compound: O=C(NCc1cccnc1)c1ccc([C@@H]2C[C@H]2NCC2CC2)cc1 (relative stereo) [Example 18, 4-(trans-2-((cyclopropylmethyl)amino)cyclopropyl)-N-(pyridin-3-ylmethyl)benzamide bis(trifluoroacetate)]
- IC50 (human LSD1(172-833)): < 0.1 µM
- IC50 (MAO-A enzyme): > 10 µM
- IC50 (MAO-B enzyme): > 10 µM

Compound: O=C(NCCc1ccccn1)c1ccc([C@@H]2C[C@H]2NCC2CC2)cc1 (relative stereo) [Example 19, 4-(trans-2-((cyclopropylmethyl)amino)cyclopropyl)-N-(2-(pyridin-2-yl)ethyl)benzamide bis(trifluoroacetate)]
- IC50 (human LSD1(172-833)): < 0.1 µM
- IC50 (MAO-A enzyme): > 10 µM
- IC50 (MAO-B enzyme): > 10 µM

Compound: O=C(c1ccc([C@@H]2C[C@H]2NCC2CC2)cc1)N1Cc2cccnc2C1 (relative stereo) [Example 20, (4-(trans-2-((cyclopropylmethyl)amino)cyclopropyl)phenyl)(5,7-dihydro-6H-pyrrolo[3,4-b]pyridin-6-yl)methanone bis(trifluoroacetate)]
- IC50 (human LSD1(172-833)): < 0.1 µM
- IC50 (MAO-A enzyme): > 10 µM
- IC50 (MAO-B enzyme): > 10 µM

Compound: O=C(NCc1cccc(Oc2ccccc2)c1)c1ccc([C@@H]2C[C@H]2NCC2CC2)cc1 (relative stereo) [Example 21, 4-(trans-2-((cyclopropylmethyl)amino)cyclopropyl)-N-(3-phenoxybenzyl)benzamide trifluoroacetate]
- IC50 (human LSD1(172-833)): < 0.1 µM
- IC50 (MAO-A enzyme): 1.8 µM
- IC50 (MAO-B enzyme): > 10 µM

Compound: N#CCN(Cc1ccccc1)C(=O)c1ccc([C@@H]2C[C@H]2NCC2CC2)cc1 (relative stereo) [Example 22, N-benzyl-N-(cyanomethyl)-4-(trans-2-((cyclopropylmethyl)amino)cyclopropyl)benzamide trifluoroacetate]
- IC50 (human LSD1(172-833)): < 0.1 µM
- IC50 (MAO-A enzyme): > 10 µM
- IC50 (MAO-B enzyme): > 10 µM

Compound: CN1CCN(c2ccc(NC(=O)c3ccc([C@@H]4C[C@H]4NCC4CC4)cc3)cc2)CC1 (relative stereo) [Example 23, 4-(trans-2-((cyclopropylmethyl)amino)cyclopropyl)-N-(4-(4-methylpiperazin-1-yl)phenyl)benzamide tris(trifluoroacetate)]
- IC50 (human LSD1(172-833)): < 0.1 µM
- IC50 (MAO-A enzyme): > 10 µM
- IC50 (MAO-B enzyme): > 10 µM

Compound: N#Cc1cccc(CNC(=O)c2ccc([C@@H]3C[C@H]3NCC3CC3)cc2)c1 (relative stereo) [Example 25, N-(3-cyanobenzyl)-4-(trans-2-((cyclopropylmethyl)amino)cyclopropyl)benzamide trifluoroacetate]
- IC50 (human LSD1(172-833)): < 0.1 µM
- IC50 (MAO-A enzyme): > 10 µM
- IC50 (MAO-B enzyme): > 10 µM

Compound: O=C(NCc1ncccc1C(F)(F)F)c1ccc([C@@H]2C[C@H]2NCC2CC2)cc1 (relative stereo) [Example 26, 4-(trans-2-((cyclopropylmethyl)amino)cyclopropyl)-N-((3-(trifluoromethyl)pyridin-2-yl)methyl)benzamide bis(trifluoroacetate)]
- IC50 (human LSD1(172-833)): < 0.1 µM
- IC50 (MAO-A enzyme): > 10 µM
- IC50 (MAO-B enzyme): > 10 µM
